{"source": "patent US20200306283A1", "about": "“CANCER TREATMENT AND METASTASIS INHIBITION USING AN ANTI-CANCER STEM CELL AGENT IN COMBINATION WITH A NEU1 SIALIDASE INHIBITOR OR A CYTOKINE INHIBITOR AFTER PRIMARY CANCER TREATMENT” (priority 2016, published 2020)", "key": {"SW-620 cells": {"test_system": "SW-620 cells", "experiment": "SW-620 cells treated with cytokines with or without Irinotecan, flow cytometry for stem cell markers and apoptosis", "type": "cell-based, human", "details": "SW-620, cytokines 24 hours then 2 μM Irinotecan 36 hours; zero in non-treated control cells", "description": "SW-620 cells, a human colorectal adenocarcinoma cell line, were treated with cytokines alone or in combination including IL-6, TGF-beta, HGF, PGE-2, IL-6+PGE-2 and TGF-beta+HGF for 24 hours and compared to untreated SW-620 cells as control. Some treated and untreated SW-620 cells were then exposed to 2 μM Irinotecan for 36 hours at which point cells were harvested for flow cytometry to assess for stem cell markers and markers of apoptosis. The percentage of CD44+CD133− cells following treatment with various cytokine and cytokine cocktails is depicted in FIG. 10. Compared to non-cytokine treated cells, combinations with IL-6+PGE-2, and TGF-beta+HGF increased the number and percentage of cells that were CD44+CD133− as shown in FIG. 10 (stem cells). FIG. 11 depicts the percentage of CD44+CD133− cells following treatment with various cytokines and Irinotecan. […]\nAdditionally, the percentage of CD44-CD133+ cells following treatment with various cytokines and cytokines cocktails was determined as depicted in FIG. 16. The percentage of CD44-CD133+ cells following treatment with various cytokines and Irinotecan was measured as depicted in FIG. 17. The percentage of CD44-CD133+ cells following treatment with various cytokine cocktails and Irinotecan was measured as depicted in FIG. 18. […]"}, "HCT-15 cells": {"test_system": "HCT-15 cells", "experiment": "Cell subpopulations (CD44/CD24) in HCT-15 cell line after cytokine exposure, imaging flow cytometry", "type": "cell-based", "parameters": "unit not given here", "details": "HCT-15 cells after exposure to cytokines singly or in pairs", "description": "Two authenticated colorectal carcinoma cell lines, HCT-15 and SW-620, were used to test the effect of different cytokine and cytokine cocktails, including IL-6, HGF, PGE-2, TGF-beta and MMP-9 alone or in a cocktail, on cell proliferation, EMT and cancer stem cell populations.\nIn order to evaluate stem cell populations, cells were synchronized by serum starvation for 72 hours before seeding in 24-well ultra low attachment plates at a density of 200,000 cells/well. Cells were then detached using trypsin EDTA and washed twice with PBS (without Calcium or Magnesium). A cell proliferation dye, eFluor 450 was used to label cells. Cells were grown with DMEM with high glucose and 2 mM Gluatmine without FBS in the presence of selected cytokines and or cytokine cocktails over a period of 72 hrs.\nCells that were grown in 5% serum were stained with the following antibody cocktails: CD24FITC, CD44PE and CD24FITC, CD133PE. Cells were also stained with a fixable live/dead efluor dye 506 to exclude dead cells. In parallel, cells were grown in the presence of 5% serum to evaluate CSC markers.\n(§1) Cells were fixed in 1% Paraformaldehyde for 15 minutes at room temperature and run on Flowsight using 2 lasers (488 nm at 60 mW and 405 nm at 30 mW). For cell lines, 100,000 events were collected whilst for enriched CTCs all events were collected until the sample finished.\n(§2) Flow cytometry data was analysed using IDEAS software. Double events, out of focus events, CD45PercPCy5.5 positive cells (in case of enriched CTCs), dead cells and non-nucleated events were eliminated from the fluorescence analysis of the cell population. FIG. 2 depicts scatterplots of flow cytometry experiments showing the enriched CTCs stained with an antibody containing CD44 after treatment with various cytokines and cytokine cocktails. Hoescht 33258 dye was used to stain nuclei in the case of the HCT-15 cell line and enriched CTCs. All experiments were stained with a fixable live/dead dye eFluor 506 to exclude dead cells.\nTo evaluate which cocktail combinations were most likely involved in cell proliferation of presumed quiescent stem cells or de-differentiated stem cell-like cells, four cytokines, IL-6, HGF, PGE-2 and TGF-beta were added singly or in pairs to HCT-15 cells. Results of combinations that influenced cell proliferation of HCT-15 cells in culture are presented. […] FIG. 4 depicts cell proliferation of subpopulations in the HCT-15 cell line after exposure to various cytokines and cytokine cocktails."}, "[1]": {"test_system": "enriched circulating tumour cells from a patient with colorectal cancer", "experiment": "Cultured enriched CTCs from a colorectal cancer patient treated with IL-6, IL-8 or PDGFBB (EpCAM, CD133, Lgr5 flow cytometry)", "type": "cell-based, human", "source_text": "A blood sample was collected from a patient with colorectal cancer six days after surgery. Blood samples were enriched for CTCs using RosetteSep CD 56 kit according to standard protocol. Prior to cell culture, cells were stained with the following antibody cocktail: EpCAM A488, CD133PE, CD 45 PerCP Cy5.5, and Lgr5-PE-Vio770. Cells were either cultured in low attachment well plates without cytokines (control cells) or with three different cytokines (IL-6, IL-8 or PDGFBB).\nFlow cytometry data was analysed using IDEAS software. Double events, out of focus events, CD45PercPCy5.5 positive cells, dead cells and non-nucleated events were eliminated from the fluorescence analysis of the cell population. Hoescht 33258 dye was used to stain nuclei of enriched CTCs. All experiments were stained with a fixable live/dead dye eFluor 506 to exclude dead cells."}, "[2]": {"test_system": "enriched circulating tumour cells from a patient with metastatic prostate cancer", "experiment": "Cell proliferation / cancer stem cell markers (EpCAM, CD44, CD133) in enriched CTCs cultured with cytokine cocktails", "type": "cell-based, human", "description": "as §1\nas §2, with “cocktails.” for “cocktails. Hoescht 33258 dye was used to stain nuclei in the case of the HCT-15 cell line and enriched CTCs. All experiments were stained with a fixable live/dead dye eFluor 506 to exclude dead cells.”\nIn order to determine if selected cytokines influence cell proliferation of circulating tumour cells (CTCs), whole blood was collected from a patient with metastatic prostate cancer. Circulating tumour cells were enriched from whole blood using RosetteSep CTC Enrichment cocktail. Briefly, samples of whole blood were incubated with RosetteSep (anti CD 56 for 20 minutes at room temperature). Phosphate buffered saline containing 2% Fetal Bovine Serum was added to the samples and layered on a Ficoll Paque gradient. After centrifugation, the supernatant which contained CTCs was washed twice with PBS containing 2% FBS. Equal volumes of the cell suspension were seeded into a 24-well ultra-low attachment polystyrene plate. […] FIG. 3 depicts scatterplots of flow cytometry experiments enriched CTCs stained with an antibody containing CD133 after treatment with various cytokines and cytokine cocktails.\nFIG. 6 depicts cell proliferation of subpopulations in cultured CTCs after exposure to various cytokines and cytokine cocktails. Cells were stained using an antibody containing CD44 PE.\nCells were stained using an antibody containing CD133 PE."}, "[3]": {"test_system": "xenograft tumors of PANC-1 cells", "experiment": "Fluorescence immunohistochemistry of E-cadherin and N-cadherin in PANC-1 xenograft tumors (FIG. 24)", "type": "in vivo", "details": "immunocompromised mice", "description": "Paraffin-embedded tumor sections (5 μm) on glass slides were processed from immunohistochemistry using conjugated E-cadherin and N-cadherin antibodies (see A of FIG. 24). Background control (CTL) sections were prepared without the antibodies. Images are representative of at least five fields of view from two tumor sections. (B). Each bar represents the mean (±standard error of the mean) corrected density of tumor staining. Abbrev.: C=cohort; M=mouse number. E- and N-cadherin expression in paraffin-embedded xenograft tumors of PANC-1 cells in immunocompromised mice using conjugated E- and N-cadherin antibodies was detected by fluorescence immunohistochemistry. […] Images are representative of at least five fields of view from two tumor sections, and each bar represents the mean±standard error of the mean corrected density of tumor staining."}, "[4]": {"details": "cultured CTCs from colorectal cancer patient"}, "[5]": {"details": "cell culture period 8 days, CD44PE antibody cocktail"}}}
{"compound": "IL6: cytokine Interleukin 6 added to cancer cells in culture", "values": [{"measurement": "percentage of CD44+CD133− stem cells", "setting": "SW-620 cells", "value": "enriched"}, {"measurement": "CD24 + CD44− cell subpopulation", "setting": "HCT-15 cells", "value": 49.1}, {"measurement": "CD44 + CD24+ cell subpopulation", "setting": "HCT-15 cells", "value": 5.63}, {"measurement": "CD44 + CD24− cell subpopulation", "setting": "HCT-15 cells", "value": 1.35}, {"measurement": "CD44 − CD24− cell subpopulation", "setting": "HCT-15 cells", "value": 43.2}, {"measurement": "EpCAM + CD133+ cell subpopulation", "setting": "[1]; [4]", "value": "0.1 percentages of gated subpopulations"}, {"measurement": "EpCAM + CD133− cell subpopulation", "setting": "[1]; [4]", "value": "2.98 percentages of gated subpopulations"}, {"measurement": "EpCAM − CD133+ cell subpopulation", "setting": "[1]; [4]", "value": "0.12 percentages of gated subpopulations"}, {"measurement": "EpCAM − CD133− cell subpopulation", "setting": "[1]; [4]", "value": "90.5 percentages of gated subpopulations"}, {"measurement": "EpCAM+CD133− subpopulation (cancer stem cell fraction)", "setting": "[1]; cultured CTCs, colorectal cancer patient, 0.05% before culture, 2% control, listed as IL-6", "value": "significantly increased"}, {"measurement": "percentage of cells positive for both EpCAM and CD44", "setting": "[2]; 8 days culture, CD44PE antibody cocktail", "value": "highest"}, {"measurement": "EpCAM-CD44+ cell sub-population", "setting": "[2]; 8 days culture, no serum, CD44PE antibody cocktail", "value": 6.14, "unit": "% gated"}, {"measurement": "EpCAM + CD133+ cell subpopulation", "setting": "[2]; CD133 PE antibody cocktail", "value": "23.5 percentages of gated subpopulations"}, {"measurement": "EpCAM + CD133− cell subpopulation", "setting": "[2]; CD133 PE antibody cocktail", "value": "0 percentages of gated subpopulations"}, {"measurement": "EpCAM − CD133+ cell subpopulation", "setting": "[2]; CD133 PE antibody cocktail", "value": "74.7 percentages of gated subpopulations"}, {"measurement": "EpCAM − CD133− cell subpopulation", "setting": "[2]; CD133 PE antibody cocktail", "value": "1.46 percentages of gated subpopulations"}, {"measurement": "EpCAM + CD44+ cell subpopulation", "setting": "[2]; [5]", "value": "35.6 percentage of gated cells"}, {"measurement": "EpCAM + CD44− cell subpopulation", "setting": "[2]; [5]", "value": "2.66 percentage of gated cells"}, {"measurement": "EpCAM − CD44+ cell subpopulation", "setting": "[2]; [5]", "value": "6.14 percentage of gated cells"}, {"measurement": "EpCAM − CD44− cell subpopulation", "setting": "[2]; [5]", "value": "55 percentage of gated cells"}]}
{"compound": "Nc1ccn([C@@H]2O[C@H](CO)[C@@H](O)C2(F)F)c(=O)n1", "note": "[Gem, gemcitabine]", "values": [{"measurement": "N-cadherin expression in tumor tissue", "setting": "[3]", "value": "remained consistent"}]}
